{"source": "ChEMBL document CHEMBL3872258", "about": "“Challenges in the development of an M4 PAM in vivo tool compound: The discovery of VU0467154 and unexpected DMPK profiles of close analogs” (Bioorg Med Chem Lett, 2017)", "key": {"[1]": {"molecular_target": "T1, Muscarinic acetylcholine receptor M4 (Rattus norvegicus, UniProt P08485)", "T1 sequence (P08485 whole entry)": "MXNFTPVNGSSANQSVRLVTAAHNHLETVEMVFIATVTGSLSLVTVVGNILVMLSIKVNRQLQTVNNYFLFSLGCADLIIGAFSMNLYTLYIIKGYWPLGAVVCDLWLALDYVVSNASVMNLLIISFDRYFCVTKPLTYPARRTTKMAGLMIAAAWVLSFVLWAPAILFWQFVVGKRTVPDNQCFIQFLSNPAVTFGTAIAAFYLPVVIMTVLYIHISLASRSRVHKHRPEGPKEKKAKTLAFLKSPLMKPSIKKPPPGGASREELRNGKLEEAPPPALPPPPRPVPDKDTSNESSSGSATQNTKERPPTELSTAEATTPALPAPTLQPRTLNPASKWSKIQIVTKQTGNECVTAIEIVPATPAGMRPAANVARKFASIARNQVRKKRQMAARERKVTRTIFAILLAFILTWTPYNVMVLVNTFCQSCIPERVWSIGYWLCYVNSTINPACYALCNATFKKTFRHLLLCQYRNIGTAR", "assay": "Positive allosteric modulation of rat M4 receptor expressed in CHO cells co-expressing Gqui5 by calcium mobilization assay", "type": "functional, cell-based"}, "[2]": {"molecular_target": "T2, Muscarinic acetylcholine receptor M4 (Rattus norvegicus) (UniProt P08485)", "T2 sequence (whole entry)": "T1 sequence (P08485 whole entry)", "assay": "Positive allosteric modulation of rat M4 receptor expressed in CHO cells co-expressing Gqui5 by calcium mobilization assay relative to acetylcholine", "type": "functional, cell-based"}, "[3]": {"assay": "Ratio of total drug level in brain to plasma in Sprague-Dawley rat at 0.20 to 0.25 mg/kg, iv administered through cassette dosing after 0.25 hrs", "type": "ADME, organism-based"}, "[4]": {"assay": "Ratio of unbound concentration in brain to plasma in Sprague-Dawley rat at 0.20 to 0.25 mg/kg, iv administered through cassette dosing after 0.25 hrs", "type": "ADME, organism-based"}, "[5]": {"molecular_target": "T3, Muscarinic acetylcholine receptor M4 (Homo sapiens, UniProt P08173)", "T3 sequence (P08173 whole entry)": "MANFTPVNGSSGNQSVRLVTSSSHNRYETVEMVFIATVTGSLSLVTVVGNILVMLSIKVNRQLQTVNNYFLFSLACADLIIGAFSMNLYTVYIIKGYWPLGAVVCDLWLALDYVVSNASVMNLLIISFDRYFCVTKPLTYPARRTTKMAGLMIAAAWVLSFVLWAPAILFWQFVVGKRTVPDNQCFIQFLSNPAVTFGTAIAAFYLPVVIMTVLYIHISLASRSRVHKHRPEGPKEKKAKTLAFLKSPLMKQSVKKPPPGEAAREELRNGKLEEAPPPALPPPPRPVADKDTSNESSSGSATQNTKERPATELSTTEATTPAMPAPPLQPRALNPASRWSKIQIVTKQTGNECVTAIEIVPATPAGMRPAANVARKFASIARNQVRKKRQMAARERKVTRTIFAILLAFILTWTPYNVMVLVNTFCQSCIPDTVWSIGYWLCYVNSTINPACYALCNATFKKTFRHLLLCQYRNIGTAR", "assay": "Positive allosteric modulation of human M4 receptor expressed in CHO cells co-expressing Gqui5 by calcium mobilization assay", "type": "functional, cell-based", "settings": "read-out: EC50"}, "[6]": {"molecular_target": "T4, Muscarinic acetylcholine receptor M4 (Homo sapiens) (UniProt P08173)", "T4 sequence (whole entry)": "T3 sequence (P08173 whole entry)", "assay": "Positive allosteric modulation of human M4 receptor expressed in CHO cells co-expressing Gqui5 by calcium mobilization assay relative to acetylcholine", "type": "functional, cell-based"}, "[7]": {"assay": "Unbound fraction in rat plasma", "type": "ADME, cell-free"}, "[8]": {"assay": "Unbound fraction in human plasma", "type": "ADME, cell-free"}, "[9]": {"molecular_target": "Cytochrome P450 2C9 (Homo sapiens, UniProt P11712)", "sequence (P11712 whole entry)": "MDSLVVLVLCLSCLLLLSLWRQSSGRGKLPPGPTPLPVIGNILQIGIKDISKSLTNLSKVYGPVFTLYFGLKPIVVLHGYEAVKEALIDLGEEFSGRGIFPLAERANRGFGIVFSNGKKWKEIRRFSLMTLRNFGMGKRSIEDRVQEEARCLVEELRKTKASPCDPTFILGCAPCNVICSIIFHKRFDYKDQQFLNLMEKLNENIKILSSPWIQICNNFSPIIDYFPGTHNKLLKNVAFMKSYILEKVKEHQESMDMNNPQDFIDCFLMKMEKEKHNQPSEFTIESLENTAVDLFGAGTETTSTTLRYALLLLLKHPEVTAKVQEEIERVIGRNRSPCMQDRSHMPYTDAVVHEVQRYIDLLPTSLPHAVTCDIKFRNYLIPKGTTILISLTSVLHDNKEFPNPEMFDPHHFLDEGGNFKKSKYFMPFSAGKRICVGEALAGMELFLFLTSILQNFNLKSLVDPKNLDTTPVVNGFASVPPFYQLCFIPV", "assay": "Inhibition of CYP2C9 (unknown origin)", "type": "ADME"}, "[10]": {"molecular_target": "Cytochrome P450 2D6 (Homo sapiens, UniProt P10635)", "sequence (P10635 whole entry)": "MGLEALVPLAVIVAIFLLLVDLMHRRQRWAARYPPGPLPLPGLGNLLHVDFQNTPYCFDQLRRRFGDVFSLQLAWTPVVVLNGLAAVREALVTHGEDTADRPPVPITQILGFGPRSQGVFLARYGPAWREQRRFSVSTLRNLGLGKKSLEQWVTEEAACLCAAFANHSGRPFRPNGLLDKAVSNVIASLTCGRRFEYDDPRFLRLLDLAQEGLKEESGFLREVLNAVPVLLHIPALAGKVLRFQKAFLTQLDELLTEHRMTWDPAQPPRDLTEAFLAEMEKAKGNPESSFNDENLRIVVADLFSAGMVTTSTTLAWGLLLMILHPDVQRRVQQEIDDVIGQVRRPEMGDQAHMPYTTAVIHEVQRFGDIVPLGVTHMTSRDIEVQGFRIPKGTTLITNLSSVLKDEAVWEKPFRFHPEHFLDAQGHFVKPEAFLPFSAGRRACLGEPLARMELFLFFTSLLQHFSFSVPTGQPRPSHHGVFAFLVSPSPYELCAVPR", "assay": "Inhibition of CYP2D6 (unknown origin)", "type": "ADME"}, "[11]": {"assay": "Plasma clearance in Sprague-Dawley rat at 1 mg/kg, iv", "type": "ADME, organism-based"}, "[12]": {"assay": "Half life in Sprague-Dawley rat at 1 mg/kg, iv", "type": "ADME, organism-based", "settings": "in vivo; for half-life: Sprague-Dawley"}, "[13]": {"assay": "Ratio of unbound concentration in brain to plasma in Sprague-Dawley rat at 1 mg/kg, ip at 0.25 hrs", "type": "ADME, organism-based"}, "[14]": {"molecular_target": "T5, Muscarinic acetylcholine receptor M2 (Homo sapiens, UniProt P08172)", "T5 sequence (P08172 whole entry)": "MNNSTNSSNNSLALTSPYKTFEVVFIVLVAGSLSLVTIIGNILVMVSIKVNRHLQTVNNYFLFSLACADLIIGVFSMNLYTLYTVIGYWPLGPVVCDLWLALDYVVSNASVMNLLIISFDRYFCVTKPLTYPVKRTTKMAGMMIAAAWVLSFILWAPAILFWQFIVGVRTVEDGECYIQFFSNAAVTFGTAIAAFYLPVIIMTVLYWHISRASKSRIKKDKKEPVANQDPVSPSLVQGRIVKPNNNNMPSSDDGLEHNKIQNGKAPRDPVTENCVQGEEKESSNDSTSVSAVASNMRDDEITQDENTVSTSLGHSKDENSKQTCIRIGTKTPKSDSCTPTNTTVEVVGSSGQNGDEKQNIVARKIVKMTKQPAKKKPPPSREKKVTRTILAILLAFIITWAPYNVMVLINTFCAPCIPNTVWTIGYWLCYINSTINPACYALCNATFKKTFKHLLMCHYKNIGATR", "assay": "Displacement of [3H]-N-Methylscopolamine from human M2 receptor expressed in CHOK1 cells", "type": "cell-based, CHO-K1"}, "[15]": {"molecular_target": "T6, Muscarinic acetylcholine receptor M5 (Rattus norvegicus, UniProt P08911)", "T6 sequence (P08911 whole entry)": "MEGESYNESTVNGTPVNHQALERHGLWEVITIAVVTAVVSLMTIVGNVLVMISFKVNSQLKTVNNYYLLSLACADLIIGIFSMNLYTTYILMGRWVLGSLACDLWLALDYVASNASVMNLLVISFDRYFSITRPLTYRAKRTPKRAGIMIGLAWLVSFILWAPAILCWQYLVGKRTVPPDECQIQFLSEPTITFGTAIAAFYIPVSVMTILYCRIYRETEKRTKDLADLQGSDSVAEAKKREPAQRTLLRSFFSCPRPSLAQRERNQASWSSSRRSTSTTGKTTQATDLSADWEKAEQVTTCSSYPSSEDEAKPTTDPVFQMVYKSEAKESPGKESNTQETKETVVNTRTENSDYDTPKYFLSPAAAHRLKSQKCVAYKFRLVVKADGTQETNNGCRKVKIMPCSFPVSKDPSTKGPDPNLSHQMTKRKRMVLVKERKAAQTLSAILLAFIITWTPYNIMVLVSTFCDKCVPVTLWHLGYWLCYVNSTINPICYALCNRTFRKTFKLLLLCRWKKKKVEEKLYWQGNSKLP", "assay": "Binding affinity to rat M5 receptor by radio-ligand binding assay"}, "[16]": {"molecular_target": "Voltage-dependent L-type calcium channel subunit alpha-1C (Homo sapiens, UniProt Q13936)", "sequence (Q13936 whole entry)": "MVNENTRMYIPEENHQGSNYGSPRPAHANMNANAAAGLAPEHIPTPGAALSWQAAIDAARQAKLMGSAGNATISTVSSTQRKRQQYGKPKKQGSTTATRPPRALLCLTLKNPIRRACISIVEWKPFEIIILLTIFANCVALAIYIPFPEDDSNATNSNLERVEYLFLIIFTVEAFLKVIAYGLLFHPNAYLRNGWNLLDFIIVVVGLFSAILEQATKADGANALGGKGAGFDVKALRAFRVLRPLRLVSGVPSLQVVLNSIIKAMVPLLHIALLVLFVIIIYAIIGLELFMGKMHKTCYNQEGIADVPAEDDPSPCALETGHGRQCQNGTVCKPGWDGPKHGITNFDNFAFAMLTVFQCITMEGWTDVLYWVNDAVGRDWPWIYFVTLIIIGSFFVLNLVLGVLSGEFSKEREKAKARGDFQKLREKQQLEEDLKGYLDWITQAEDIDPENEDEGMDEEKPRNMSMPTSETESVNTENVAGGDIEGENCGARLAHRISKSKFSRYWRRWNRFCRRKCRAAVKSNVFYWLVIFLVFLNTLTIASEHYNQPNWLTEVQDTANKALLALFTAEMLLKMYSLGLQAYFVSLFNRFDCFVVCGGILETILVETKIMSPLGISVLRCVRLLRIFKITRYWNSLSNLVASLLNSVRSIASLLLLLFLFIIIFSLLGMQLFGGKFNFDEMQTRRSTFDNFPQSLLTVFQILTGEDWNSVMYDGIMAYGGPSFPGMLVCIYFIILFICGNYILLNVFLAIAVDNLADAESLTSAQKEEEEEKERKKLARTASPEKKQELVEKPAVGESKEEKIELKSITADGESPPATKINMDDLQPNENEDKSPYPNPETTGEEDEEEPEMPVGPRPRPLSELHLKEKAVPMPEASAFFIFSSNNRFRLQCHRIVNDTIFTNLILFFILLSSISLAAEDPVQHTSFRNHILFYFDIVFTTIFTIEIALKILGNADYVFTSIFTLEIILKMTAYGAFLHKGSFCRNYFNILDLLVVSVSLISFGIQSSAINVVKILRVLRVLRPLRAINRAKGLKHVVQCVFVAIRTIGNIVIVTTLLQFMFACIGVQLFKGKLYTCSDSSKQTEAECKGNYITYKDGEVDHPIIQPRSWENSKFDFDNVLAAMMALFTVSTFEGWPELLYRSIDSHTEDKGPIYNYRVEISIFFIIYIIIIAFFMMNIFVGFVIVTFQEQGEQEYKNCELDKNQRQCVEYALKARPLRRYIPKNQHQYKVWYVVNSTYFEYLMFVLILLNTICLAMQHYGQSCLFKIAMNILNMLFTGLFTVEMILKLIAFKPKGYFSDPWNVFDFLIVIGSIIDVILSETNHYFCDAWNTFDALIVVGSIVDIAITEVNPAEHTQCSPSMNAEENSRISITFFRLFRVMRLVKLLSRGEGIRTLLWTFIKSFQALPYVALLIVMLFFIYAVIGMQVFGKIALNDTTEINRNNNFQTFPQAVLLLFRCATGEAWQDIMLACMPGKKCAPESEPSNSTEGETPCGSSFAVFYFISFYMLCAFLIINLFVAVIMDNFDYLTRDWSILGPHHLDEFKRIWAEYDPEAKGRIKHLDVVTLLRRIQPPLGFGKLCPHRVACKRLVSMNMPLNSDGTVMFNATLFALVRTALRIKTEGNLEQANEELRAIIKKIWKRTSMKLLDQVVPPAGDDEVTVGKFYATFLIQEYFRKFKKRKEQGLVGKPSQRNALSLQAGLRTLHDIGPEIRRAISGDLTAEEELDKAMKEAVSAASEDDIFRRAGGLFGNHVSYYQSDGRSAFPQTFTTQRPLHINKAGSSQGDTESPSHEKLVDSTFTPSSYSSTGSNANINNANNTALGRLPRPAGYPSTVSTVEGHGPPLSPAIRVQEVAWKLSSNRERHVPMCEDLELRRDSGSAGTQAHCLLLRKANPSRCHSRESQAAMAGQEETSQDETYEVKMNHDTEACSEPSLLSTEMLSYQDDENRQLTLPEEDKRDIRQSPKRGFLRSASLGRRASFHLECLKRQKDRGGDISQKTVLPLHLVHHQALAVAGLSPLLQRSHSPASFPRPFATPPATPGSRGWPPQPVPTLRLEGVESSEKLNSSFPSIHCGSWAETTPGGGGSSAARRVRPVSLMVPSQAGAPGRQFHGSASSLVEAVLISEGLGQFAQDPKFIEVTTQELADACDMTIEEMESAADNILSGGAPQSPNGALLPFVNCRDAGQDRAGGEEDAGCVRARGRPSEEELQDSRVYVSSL", "assay": "Binding affinity to human Cav1.2 by radio-ligand binding assay"}, "[17]": {"molecular_target": "Sodium-dependent serotonin transporter (Homo sapiens, UniProt P31645)", "sequence (P31645 whole entry)": "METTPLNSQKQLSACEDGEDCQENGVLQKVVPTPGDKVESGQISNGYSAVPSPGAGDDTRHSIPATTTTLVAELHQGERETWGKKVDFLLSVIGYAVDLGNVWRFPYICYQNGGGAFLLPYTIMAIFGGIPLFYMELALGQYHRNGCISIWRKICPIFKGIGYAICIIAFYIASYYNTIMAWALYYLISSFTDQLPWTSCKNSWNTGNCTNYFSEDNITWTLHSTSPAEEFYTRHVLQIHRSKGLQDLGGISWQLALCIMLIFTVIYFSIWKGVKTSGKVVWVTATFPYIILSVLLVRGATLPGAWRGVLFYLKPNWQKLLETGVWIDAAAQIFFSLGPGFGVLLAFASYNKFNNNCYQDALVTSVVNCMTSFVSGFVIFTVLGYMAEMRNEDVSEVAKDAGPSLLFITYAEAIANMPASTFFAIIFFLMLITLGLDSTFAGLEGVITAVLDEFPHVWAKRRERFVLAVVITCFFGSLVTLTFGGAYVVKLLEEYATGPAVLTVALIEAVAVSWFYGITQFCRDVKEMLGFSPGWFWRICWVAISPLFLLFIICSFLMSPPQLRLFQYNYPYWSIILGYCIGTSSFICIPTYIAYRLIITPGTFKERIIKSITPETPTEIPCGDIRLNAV", "assay": "Displacement of [3H]-Paroxetine from recombinant human SERT expressed in HEK293 cells", "type": "cell-based"}, "[18]": {"assay": "Ratio of total drug level in Sprague-Dawley rat brain to plasma at 0.20-0.25 mg/kg, iv at 0.25 hrs"}}, "note": "pEC50, pIC50: −log10 of the molar value.", "data": [{"smiles": "Cc1nnc2sc(C(=O)NCc3ccc(S(=O)(=O)C(F)F)cc3)c(N)c2c1C", "values": [{"measurement": "pEC50", "setting": "[1]", "result": 7.75}, {"measurement": "Emax", "setting": "[2]", "result": 65.2, "unit": "%"}, {"measurement": "Kp", "setting": "[3]", "result": 0.11}, {"measurement": "K(p,uu,brain)", "setting": "[4]", "result": 0.1}, {"measurement": "pEC50", "setting": "[5]", "result": 6.60}, {"measurement": "Emax", "setting": "[6]", "result": 72.8, "unit": "%"}, {"measurement": "Fu", "setting": "[7]", "result": 0.066}, {"measurement": "Fu", "setting": "[8]", "result": 0.053}, {"measurement": "pIC50", "setting": "[9]", "result": "< 4.52"}, {"measurement": "pIC50", "setting": "[10]", "result": 4.68}, {"measurement": "clearance", "setting": "[11]", "result": 16, "unit": "mL/min/kg"}, {"measurement": "half-life", "setting": "[12]", "result": 2.4, "unit": "h"}, {"measurement": "K(p,uu,brain)", "setting": "[13]", "result": 0.1}, {"measurement": "pEC50", "setting": "[14]", "result": "< 4.52"}, {"measurement": "pEC50", "setting": "[15]", "result": "< 4.52"}, {"measurement": "pIC50", "setting": "[16]", "result": 5.24}, {"measurement": "pIC50", "setting": "[17]", "result": 6.22}, {"measurement": "Kp", "setting": "[18]", "result": 0.11}]}, {"smiles": "Cc1nnc2sc(C(=O)NCc3ccc(S(=O)(=O)C(F)(F)F)cc3)c(N)c2c1C", "values": [{"measurement": "Emax", "setting": "[2]", "result": 68.1, "unit": "%"}, {"measurement": "Emax", "setting": "[6]", "result": 56.4, "unit": "%"}, {"measurement": "fraction unbound", "setting": "[7]", "result": 0.031}, {"measurement": "Fu", "setting": "[8]", "result": 0.019}, {"measurement": "pIC50", "setting": "[9]", "result": "< 4.52"}, {"measurement": "pIC50", "setting": "[10]", "result": "< 4.52"}, {"measurement": "t1/2", "setting": "[12]", "result": 5.7, "unit": "h"}, {"measurement": "K(p,uu,brain)", "setting": "[13]", "result": 1.1}, {"measurement": "pEC50", "setting": "[14]", "result": "< 4.52"}, {"measurement": "pEC50", "setting": "[15]", "result": "< 4.52"}, {"measurement": "Kp", "setting": "[18]", "result": 0.49}]}, {"smiles": "Cc1nnc2sc(C(=O)NCc3ccc(S(F)(F)(F)(F)F)cc3)c(N)c2c1C", "values": [{"measurement": "pEC50", "setting": "[1]", "result": 7.52}, {"measurement": "Emax", "setting": "[2]", "result": 75.7, "unit": "%"}, {"measurement": "Kp", "setting": "[3]", "result": 1.4}, {"measurement": "K(p,uu,brain)", "setting": "[4]", "result": 1}, {"measurement": "pEC50", "setting": "[5]", "result": 6.26}, {"measurement": "Emax", "setting": "[6]", "result": 66.1, "unit": "%"}, {"measurement": "Fu", "setting": "[8]", "result": 0.01}, {"measurement": "pIC50", "setting": "[9]", "result": "< 4.52"}, {"measurement": "pIC50", "setting": "[10]", "result": 4.62}, {"measurement": "clearance", "setting": "[11]", "result": 12, "unit": "mL/min/kg"}, {"measurement": "half-life", "setting": "[12]", "result": 3.6, "unit": "h"}, {"measurement": "K(p,uu,brain)", "setting": "[13]", "result": 0.75}, {"measurement": "pEC50", "setting": "[14]", "result": "< 4.52"}, {"measurement": "pEC50", "setting": "[15]", "result": "< 4.52"}, {"measurement": "pIC50", "setting": "[17]", "result": 6.28}, {"measurement": "Kp", "setting": "[18]", "result": 1}]}]}
